Nine compounds from ChEMBL document CHEMBL1140874, “Ligand-based and structure-based virtual screening to identify carbonic anhydrase IX inhibitors” (Bioorg Med Chem, 2009) can be followed below.

pKi: −log10 of the molar value.

Targets include Carbonic anhydrase 9 (Homo sapiens, UniProt Q16790); Carbonic anhydrase 2 (Homo sapiens, UniProt P00918); Carbonic anhydrase 1 (Homo sapiens, UniProt P00915).

Carbonic anhydrase 1, sequence (P00915 whole entry): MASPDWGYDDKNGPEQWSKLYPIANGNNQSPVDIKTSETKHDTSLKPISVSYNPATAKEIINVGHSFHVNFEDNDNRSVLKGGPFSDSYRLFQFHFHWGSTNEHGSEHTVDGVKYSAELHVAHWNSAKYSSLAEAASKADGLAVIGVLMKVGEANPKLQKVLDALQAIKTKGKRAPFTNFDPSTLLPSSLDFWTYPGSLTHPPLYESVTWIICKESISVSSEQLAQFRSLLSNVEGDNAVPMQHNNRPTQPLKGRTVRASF

For the compound `N#Cc1c(N)n(-c2cccc(S(N)(=O)=O)c2)c2nc3ccccc3nc12`, on Carbonic anhydrase 9, the pKi was 6.52.

As to `NS(=O)(=O)c1ccc(CNS(=O)(=O)c2ccc(F)cc2)cc1`, the pKi at Carbonic anhydrase 9 was 6.54; at Carbonic anhydrase 2, 7.00.

For the compound `NS(=O)(=O)c1ccc(CCNC(=S)Nc2ccc(C(=O)O)cc2)cc1`, the pKi on Carbonic anhydrase 2 is 6.42.

`NS(=O)(=O)c1ccc(CCNC(=O)c2sc3ccccc3c2Cl)cc1` showed a negative logarithm of the Ki (pKi) at Carbonic anhydrase 9 of 5.97.

Turning to `NS(=O)(=O)c1ccc(CNC(=O)NC2CC2c2ccccc2)cc1` (centres undefined), the values for the pKi on Carbonic anhydrase 9 and at Carbonic anhydrase 2 were 5.74 and 5.58, respectively.

Consider `C=CCn1c(SCC(=O)Nc2ccc(S(N)(=O)=O)cc2)nc2sc3c(c2c1=O)CCCC3`, for which the negative logarithm of the Ki (pKi) at Carbonic anhydrase 1 is 4.82; on Carbonic anhydrase 9, 5.56; at Carbonic anhydrase 2, 6.48.

The compound `NS(=O)(=O)Oc1ccc(OS(N)(=O)=O)cc1` showed a pKi at Carbonic anhydrase 2 of 6.19.

As to `CC1CCN(N(CCCC(=O)Nc2ccc(S(N)(=O)=O)cc2)N2CCC(C)CC2)CC1`, the pKi on Carbonic anhydrase 9 was 7.05; at Carbonic anhydrase 2, 6.58.

`NS(=O)(=O)c1ccc(CCNC(=O)CN2C(=O)c3ccccc3C2=O)cc1` had a pKi on Carbonic anhydrase 9 of 6.54.

Broadly, the pKi is −log10 of the Ki, conventionally taken in molar units. Low readings indicate a large Ki, high ones a small Ki.
